For one data set, the target named is ErbB2 WT (Homo sapiens (Human), UniProt P04626). In words: ErbB Enzyme Assay (HTRF KinEASE-TK), Assay 2. In kind it is biochemical. To be noted: ErbB2 WT enzyme assay. (Time-resolved FRET reads energy transfer from a long-lived donor to a nearby acceptor.)
For data set [1], the target named is ErbB2 with Exon 20 YVMA insertion (HER2-YVMA) (Homo sapiens (Human), UniProt P04626, INS775YVMA). In words: Cellular Phosphorylation Assay, Assay 4 (constitutive ErbB2 phosphorylation, NIH 3T3 cells). The conditions noted are these: cellular ErbB2 YVMA phosphorylation. In kind it is cell-based.
Another data set concerns the target BCRP (Homo sapiens (Human), UniProt Q9UNQ0). Put plainly: BCRP MDCKII efflux assay (Assay 7). It counts as in vitro ADME. To be noted: dog; efflux ratio Papp(B-A)/Papp(A-B), BCRP MDCKII cells; read-out: Assay 7 Pe Ratio. On the procedure: Assay conditions included with and without the BCRP-specific inhibitor, KO143, at a concentration of 0.3 μM to ascertain the contribution of BCRP to the efflux value of the test compound.
Final organic concentration in the assay was 1%.

A further data set deals with MDR1 (P-gp) (Homo sapiens (Human), UniProt P08183). Put plainly: in vitro. The conditions noted are these: pig, LLC-PK1.
The next data set concerns the target EGFR (Homo sapiens (Human), UniProt P00533). In words: ErbB Enzyme Assay (HTRF KinEASE-TK), Assay 3. In kind it is biochemical. The conditions noted are these: EGFR enzyme assay.
For another data set, the target named is EGFR wild type (EGFR WT) (Homo sapiens (Human), UniProt P00533). Put plainly: Cellular Phosphorylation Assay, Assay 5 (EGF-stimulated EGFR phosphorylation, NIH 3T3 cells). To be noted: cellular EGFR WT phosphorylation, EGF-stimulated. It counts as cell-based.

pIC50: −log10 of the molar value.

BCRP, sequence (Q9UNQ0 whole entry): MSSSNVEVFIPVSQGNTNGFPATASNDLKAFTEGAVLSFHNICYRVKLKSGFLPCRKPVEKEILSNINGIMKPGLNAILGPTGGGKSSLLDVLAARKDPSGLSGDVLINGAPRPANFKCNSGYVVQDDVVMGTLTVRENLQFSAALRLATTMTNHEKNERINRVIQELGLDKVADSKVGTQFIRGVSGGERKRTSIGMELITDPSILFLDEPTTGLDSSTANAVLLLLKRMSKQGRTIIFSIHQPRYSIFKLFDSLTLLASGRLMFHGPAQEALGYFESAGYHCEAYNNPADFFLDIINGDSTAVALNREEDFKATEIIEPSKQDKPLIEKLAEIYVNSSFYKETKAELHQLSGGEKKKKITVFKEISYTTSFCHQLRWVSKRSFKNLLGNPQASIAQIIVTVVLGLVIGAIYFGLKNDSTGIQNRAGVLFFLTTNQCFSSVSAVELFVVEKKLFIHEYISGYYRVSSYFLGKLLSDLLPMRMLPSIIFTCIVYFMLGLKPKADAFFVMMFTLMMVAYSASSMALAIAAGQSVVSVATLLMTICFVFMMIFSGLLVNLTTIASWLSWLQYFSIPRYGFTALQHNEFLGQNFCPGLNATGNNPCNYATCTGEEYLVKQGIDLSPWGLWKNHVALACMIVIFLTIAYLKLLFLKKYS
EGFR wild type (EGFR WT), sequence (P00533 25-1210): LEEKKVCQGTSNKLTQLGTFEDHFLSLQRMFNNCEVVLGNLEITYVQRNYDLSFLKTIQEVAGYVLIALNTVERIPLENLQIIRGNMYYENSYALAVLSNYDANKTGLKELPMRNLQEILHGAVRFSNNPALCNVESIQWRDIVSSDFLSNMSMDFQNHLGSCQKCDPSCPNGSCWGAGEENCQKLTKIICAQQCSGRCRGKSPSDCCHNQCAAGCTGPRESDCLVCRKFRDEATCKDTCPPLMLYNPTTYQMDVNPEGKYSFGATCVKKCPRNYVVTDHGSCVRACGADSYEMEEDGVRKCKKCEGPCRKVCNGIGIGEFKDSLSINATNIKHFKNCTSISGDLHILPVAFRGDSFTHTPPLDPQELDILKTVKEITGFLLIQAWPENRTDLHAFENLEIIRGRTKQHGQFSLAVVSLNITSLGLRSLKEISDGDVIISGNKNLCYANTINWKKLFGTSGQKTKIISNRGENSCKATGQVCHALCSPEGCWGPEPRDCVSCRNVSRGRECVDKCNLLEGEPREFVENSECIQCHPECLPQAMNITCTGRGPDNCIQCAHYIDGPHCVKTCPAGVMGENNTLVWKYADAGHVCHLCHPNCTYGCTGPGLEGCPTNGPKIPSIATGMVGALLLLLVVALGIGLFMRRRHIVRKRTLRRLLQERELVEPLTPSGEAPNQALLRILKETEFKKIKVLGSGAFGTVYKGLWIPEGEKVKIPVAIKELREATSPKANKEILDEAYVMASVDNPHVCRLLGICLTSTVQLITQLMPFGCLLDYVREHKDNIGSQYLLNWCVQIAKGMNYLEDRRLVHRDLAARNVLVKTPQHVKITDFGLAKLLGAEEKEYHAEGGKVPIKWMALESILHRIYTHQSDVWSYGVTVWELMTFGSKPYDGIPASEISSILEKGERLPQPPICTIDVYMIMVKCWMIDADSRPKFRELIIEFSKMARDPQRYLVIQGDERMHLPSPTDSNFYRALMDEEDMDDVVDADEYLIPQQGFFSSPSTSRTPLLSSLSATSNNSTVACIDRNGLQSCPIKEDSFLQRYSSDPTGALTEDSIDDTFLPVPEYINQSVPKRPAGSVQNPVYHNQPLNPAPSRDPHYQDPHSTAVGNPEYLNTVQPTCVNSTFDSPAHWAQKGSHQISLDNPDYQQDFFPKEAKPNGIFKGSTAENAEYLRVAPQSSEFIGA
EGFR, sequence (P00533 25-1210): as above
MDR1 (P-gp), sequence (P08183 whole entry): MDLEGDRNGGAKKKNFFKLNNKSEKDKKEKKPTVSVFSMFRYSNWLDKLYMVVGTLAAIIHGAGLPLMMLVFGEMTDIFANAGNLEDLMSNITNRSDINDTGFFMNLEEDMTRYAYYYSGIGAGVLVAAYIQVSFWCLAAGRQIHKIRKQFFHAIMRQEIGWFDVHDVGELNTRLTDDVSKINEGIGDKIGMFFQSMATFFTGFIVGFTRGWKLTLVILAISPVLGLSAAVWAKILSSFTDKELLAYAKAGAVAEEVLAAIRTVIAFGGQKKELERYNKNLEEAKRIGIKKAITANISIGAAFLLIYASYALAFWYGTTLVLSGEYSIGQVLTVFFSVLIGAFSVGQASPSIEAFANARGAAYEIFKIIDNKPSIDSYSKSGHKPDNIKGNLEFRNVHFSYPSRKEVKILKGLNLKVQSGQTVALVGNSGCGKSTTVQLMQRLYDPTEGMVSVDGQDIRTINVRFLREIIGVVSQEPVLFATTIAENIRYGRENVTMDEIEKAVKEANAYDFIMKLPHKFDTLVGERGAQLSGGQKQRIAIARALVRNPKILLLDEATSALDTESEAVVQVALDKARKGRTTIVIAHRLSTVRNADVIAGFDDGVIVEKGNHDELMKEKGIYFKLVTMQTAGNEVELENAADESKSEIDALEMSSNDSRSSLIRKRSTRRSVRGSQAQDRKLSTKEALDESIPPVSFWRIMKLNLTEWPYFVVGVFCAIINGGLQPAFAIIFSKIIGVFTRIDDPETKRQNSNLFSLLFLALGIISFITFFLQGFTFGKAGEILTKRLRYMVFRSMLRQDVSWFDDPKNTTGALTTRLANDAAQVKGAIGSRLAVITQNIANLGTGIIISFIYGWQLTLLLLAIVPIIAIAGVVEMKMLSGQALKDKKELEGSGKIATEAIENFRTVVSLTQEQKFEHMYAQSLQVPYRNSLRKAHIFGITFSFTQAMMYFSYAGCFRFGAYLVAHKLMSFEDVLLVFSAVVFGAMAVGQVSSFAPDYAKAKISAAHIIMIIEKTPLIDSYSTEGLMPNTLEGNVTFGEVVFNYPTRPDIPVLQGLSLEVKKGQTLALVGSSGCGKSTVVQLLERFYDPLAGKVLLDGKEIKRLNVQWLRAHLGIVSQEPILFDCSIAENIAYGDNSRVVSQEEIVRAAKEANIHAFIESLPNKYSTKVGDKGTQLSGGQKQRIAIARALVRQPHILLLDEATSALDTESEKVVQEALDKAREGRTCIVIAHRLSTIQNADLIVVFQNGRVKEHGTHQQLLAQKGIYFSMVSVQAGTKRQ

By pIC50 is commonly meant −log10 of the IC50, conventionally taken in molar units. In the case of `C=CC(=O)N1CCN(c2ccc3ncnc(Nc4ccc(Oc5ccn6ncnc6c5)c(C)c4F)c3n2)C[C@H]1C(C)(C)C` [Example 303], the pIC50 on ErbB2 WT was 7.70; in data set [1], 7.74; against EGFR, 5.29; at EGFR wild type (EGFR WT) it was 5.59. For the same compound, the efflux ratio at 2 h, 1 µM at BCRP came out at 1.1; on MDR1 (P-gp), 1.3.
`C=CC(=O)N1C[C@@H]2CC[C@H]1CN2c1ccc2ncnc(Nc3cc(C)c(Oc4ccn5ncnc5c4)cc3F)c2n1` [Example 319]: the negative logarithm of the IC50 (pIC50) against ErbB2 WT is 8.09; in data set [1] it was 8.24; against EGFR, 6.72; against EGFR wild type (EGFR WT) it was 6.58. The efflux ratio at 2 h, 1 µM was 3.6 at BCRP and 4.8 on MDR1 (P-gp).
With `C=CC(=O)N1CCN(c2ccc3ncnc(Nc4cc(Cl)c(Oc5ccn6ncnc6c5)cc4F)c3n2)CC1(C)C` [Example 326], the pIC50 against ErbB2 WT was 7.73; in data set [1], 7.71; on EGFR, 5.54; against EGFR wild type (EGFR WT), 6.02. For the same compound, the results for the efflux ratio at 2 h, 1 µM on BCRP and at MDR1 (P-gp) were 2.1 and 1.5, respectively.
With `C=CC(=O)N1CC[C@@H]2C[C@H]1CN2c1ccc2ncnc(Nc3cc(C)c(Oc4ccn5ncnc5c4)cc3F)c2n1` [Example 332], the pIC50 was 7.96 against ErbB2 WT, 8.23 in data set [1], 6.71 at EGFR and 6.47 against EGFR wild type (EGFR WT). The efflux ratio at 2 h, 1 µM at BCRP worked out at 3.2; at MDR1 (P-gp), 1.2.
Turning to `C=CC(=O)N1CC2CC(C1)N2c1ccc2ncnc(Nc3cc(C)c(Oc4ccc5c(c4)ncn5C)cc3F)c2n1` [Example 334], the pIC50 was 7.25 on ErbB2 WT, 7.66 in data set [1], 6.37 against EGFR and 5.97 against EGFR wild type (EGFR WT). In addition, the efflux ratio at 2 h, 1 µM at BCRP was 1.9; on MDR1 (P-gp), 3.7.
Turning to `C=CC(=O)N1CCN(c2ccc3ncnc(Nc4cc(C)c(Oc5ccn6ncnc6c5)cc4F)c3n2)CC12CC2` [Example 337], the pIC50 at ErbB2 WT is 7.89; in data set [1], 8.09; against EGFR it was 6.44; on EGFR wild type (EGFR WT), 6.38. The figures for the efflux ratio at 2 h, 1 µM on BCRP and on MDR1 (P-gp) were 3.6 and 1.4, respectively.
`C=CC(=O)N1CCN(c2ccc3ncnc(Nc4cc(C)c(Oc5cnc6c(c5)ncn6C)cc4F)c3n2)C[C@@H]1C1CC1` [Example 355]: the negative-log IC50 (pIC50) on ErbB2 WT is 6.80; in data set [1], 7.55; against EGFR, at most 5.00; against EGFR wild type (EGFR WT) it was at most 5.30. Moreover, the values for the efflux ratio at 2 h, 1 µM at BCRP and at MDR1 (P-gp) were 7.2 and 1.5, respectively.
Turning to `C=CC(=O)N1CCN(c2ccc3ncnc(Nc4cc(C)c(Oc5cnc6c(c5)ncn6C)cc4F)c3n2)C[C@H]1C1CC1` [Example 356], the pIC50 against ErbB2 WT was 6.63; in data set [1] it was 7.57; against EGFR, at most 5.00; against EGFR wild type (EGFR WT), at most 5.30. In addition, the efflux ratio at 2 h, 1 µM was found to be 4.8 at BCRP and 0.9 at MDR1 (P-gp).
For the compound `C=CC(=O)N1CCN(c2ccc3ncnc(Nc4cc(C)c(Oc5cnc6c(c5)ncn6C)cc4F)c3n2)CC1(C)C` [Example 357], the pIC50 is 6.92 at ErbB2 WT, 7.77 in data set [1], 5.30 against EGFR and at most 5.30 against EGFR wild type (EGFR WT). In addition, the efflux ratio at 2 h, 1 µM on BCRP stood at 6.2; at MDR1 (P-gp), 1.6.
With `C=CC(=O)N1CCC12CN(c1ccc3ncnc(Nc4cc(C)c(Oc5ccn6ncnc6c5)cc4F)c3n1)C2` [Example 361], the pIC50 at ErbB2 WT was 7.47; in data set [1], 8.10; on EGFR it was 6.04; at EGFR wild type (EGFR WT), 6.12. Besides, the efflux ratio at 2 h, 1 µM on BCRP came to 2.3; at MDR1 (P-gp), 2.9.
`C=CC(=O)N1CCCC(c2ccc3ncnc(Nc4cc(C)c(Oc5ccn6ncnc6c5)cc4F)c3n2)CC1` (stereo not drawn) [Example 368]: the negative logarithm of the IC50 (pIC50) against ErbB2 WT is 7.12; in data set [1], 7.46; against EGFR, 5.02; at EGFR wild type (EGFR WT), at most 5.30. Besides, the efflux ratio at 2 h, 1 µM at BCRP was 2.7; at MDR1 (P-gp) it was 1.4.
For the compound `C=CC(=O)N1[C@@H]2CC[C@H]1CC(c1ccc3ncnc(Nc4ccc(Oc5ccn6ncnc6c5)c(C)c4F)c3n1)C2` (stereo partly drawn) [Example 369], the pIC50 against ErbB2 WT was 7.17; in data set [1] it was 7.65; at EGFR, 5.61; against EGFR wild type (EGFR WT) it was 5.87. For the same compound, the efflux ratio at 2 h, 1 µM on BCRP was 4.3; on MDR1 (P-gp) it was 1.1.
In the case of `C=CC(=O)N1C[C@@H]2C[C@H](c3ccc4ncnc(Nc5cc(C)c(Oc6ccc7c(c6)ncn7C)cc5F)c4n3)C[C@H]1C2` [Example 388], the pIC50 against ErbB2 WT is 7.39; in data set [1], 7.55; at EGFR, 5.74; against EGFR wild type (EGFR WT) it was 5.77. Moreover, the efflux ratio at 2 h, 1 µM at BCRP came out at 1.8; on MDR1 (P-gp) it was 3.2.
On to `C=CC(=O)N1[C@@H]2CC[C@H]1[C@H](c1ccc3ncnc(Nc4cc(C)c(Oc5ccc6c(c5)ncn6C)cc4F)c3n1)C2` [Example 393], for which the pIC50 was 7.87 on ErbB2 WT, 7.81 in data set [1], 6.15 on EGFR and at most 5.30 on EGFR wild type (EGFR WT). Also, the efflux ratio at 2 h, 1 µM on BCRP came to 2.2; at MDR1 (P-gp), 1.8.
With `C=CC(=O)N1[C@@H]2CC[C@H]1[C@H](c1ccc3ncnc(Nc4ccc(Oc5ccc6c(c5)ncn6C)c(C)c4F)c3n1)C2` [Example 394], the pIC50 against ErbB2 WT is 7.94; in data set [1], 7.97; against EGFR, 6.60; at EGFR wild type (EGFR WT), at most 5.30. The efflux ratio at 2 h, 1 µM at BCRP was 1.8; on MDR1 (P-gp) it was 2.6.
On to `C=CC(=O)N1CCCC(c2ccc3ncnc(Nc4ccc(Oc5ccn6ncnc6c5)c(C)c4)c3n2)CC1` (stereo not drawn) [Example 401], for which the pIC50 is 8.04 on ErbB2 WT, 7.52 in data set [1], 5.57 against EGFR and at most 5.30 against EGFR wild type (EGFR WT). Also, the efflux ratio at 2 h, 1 µM on BCRP is 5.5; on MDR1 (P-gp), 1.5.
In the case of `C=CC(=O)N1CCCC(c2ccc3ncnc(Nc4ccc(Oc5cnc6c(c5)ncn6C)c(C)c4)c3n2)CC1` (stereo not drawn) [Example 403], the negative logarithm of the IC50 (pIC50) is 7.21 against ErbB2 WT, 7.87 in data set [1], 5.89 on EGFR and at most 5.30 against EGFR wild type (EGFR WT). Also, the results for the efflux ratio at 2 h, 1 µM at BCRP and on MDR1 (P-gp) were 4 and 2, respectively.
`C=CC(=O)N1[C@@H]2CC[C@H]1[C@H](c1ccc3ncnc(Nc4ccc(Oc5ccn6ncnc6c5)c(Cl)c4F)c3n1)C2` [Example 404]: the pIC50 against ErbB2 WT was 8.14; in data set [1], 7.94; against EGFR, 6.98; on EGFR wild type (EGFR WT) it was at most 5.30. The efflux ratio at 2 h, 1 µM at BCRP was 5.2; at MDR1 (P-gp) it was 1.2.
For `C=CC(=O)N1C[C@H]2C[C@@H]1[C@H](c1ccc3ncnc(Nc4ccc(Oc5ccn6ncnc6c5)c(Cl)c4F)c3n1)C2` [Example 406], the pIC50 was 8.06 against ErbB2 WT, 8.03 in data set [1], 6.47 at EGFR and 6.13 on EGFR wild type (EGFR WT). The efflux ratio at 2 h, 1 µM came to 4.3 on BCRP and 0.9 at MDR1 (P-gp).
Turning to `C=CC(=O)N1[C@@H]2CC[C@H]1[C@H](c1ccc3ncnc(Nc4ccc(Oc5cnc6c(c5)ncn6C)c(C)c4)c3n1)C2` [Example 408], the negative-log IC50 (pIC50) is 7.49 at ErbB2 WT, 7.63 in data set [1], 6.30 against EGFR and at most 5.30 on EGFR wild type (EGFR WT). The efflux ratio at 2 h, 1 µM at BCRP stood at 2.2; at MDR1 (P-gp), 1.1.
Turning to `C=CC(=O)N1CCCC(c2ccc3ncnc(Nc4cc(C)c(Oc5cnc6c(c5)ncn6C)cc4F)c3n2)CC1` (stereo not drawn) [Example 412], the pIC50 is 6.69 against ErbB2 WT, 7.53 in data set [1], at most 5.00 on EGFR and at most 5.30 on EGFR wild type (EGFR WT). The efflux ratio at 2 h, 1 µM amounted to 3 on BCRP and 1.6 on MDR1 (P-gp).
For `C=CC(=O)N1CCCC(c2ccc3ncnc(Nc4ccc(Oc5cnc6c(c5)ncn6C)c(C)c4F)c3n2)CC1` (stereo not drawn) [Example 413], the pIC50 against ErbB2 WT is 7.10; in data set [1] it was 7.61; at EGFR, 5.65; on EGFR wild type (EGFR WT), at most 5.30. Besides, the efflux ratio at 2 h, 1 µM came to 2 at BCRP and 1 on MDR1 (P-gp).
With `C=CC(=O)N1[C@@H]2CCC[C@H]1[C@@H](c1ccc3ncnc(Nc4ccc(Oc5ccn6ncnc6c5)c(C)c4F)c3n1)C2` [Example 415], the pIC50 was 8.01 against ErbB2 WT, 7.49 in data set [1], 6.61 against EGFR and at most 5.30 on EGFR wild type (EGFR WT). The values for the efflux ratio at 2 h, 1 µM at BCRP and on MDR1 (P-gp) were 1.8 and 1, respectively.
Regarding `C=CC(=O)N1C[C@H]2C[C@@H]1[C@H](c1ccc3ncnc(Nc4cc(C)c(Oc5cnc6c(c5)ncn6C)cc4F)c3n1)C2` [Example 416], the pIC50 is 7.10 at ErbB2 WT, 7.44 in data set [1], 5.57 on EGFR and at most 5.30 against EGFR wild type (EGFR WT). In addition, the results for the efflux ratio at 2 h, 1 µM at BCRP and at MDR1 (P-gp) were 2 and 0.9, respectively.

The record behind these values is patent US12447153B2, “HER2 mutation inhibitors” (Array BioPharma Inc., priority 2021, dated 2025).
